Experimental data from ChEMBL document CHEMBL4184259, “Design, synthesis and evaluation of 4'-OH-flurbiprofen-chalcone hybrids as potential multifunctional agents for Alzheimer's disease treatment” (Bioorg Med Chem, 2018).
Calls of active or inactive are those of the source. No cut-off for these calls is given here.

Assays:
[1] = Inhibition of cupric ion-mediated amyloid beta (1 to 42) aggregation at 25 uM after 24 hrs by thioflavin T fluorescence assay relative to control
[2] = Metal chelating activity assessed as Cu2+-compound complex formation by measuring shift in maximum absorption wavelength at 37.5 uM after 30 mins by UV-Vis spectral analysis
BV-2 [3] = assay: Antiinflammatory activity in mouse BV2 cells assessed as inhibition of LPS-induced nitric oxide production at 2.5 uM pretreated for 30 mins followed by LPS-stimulation measured after 24 hrs by Griess assay relative to control; format: functional
[4] = Metal chelating activity assessed as Zn2+-compound complex formation by measuring shift in maximum absorption wavelength at 37.5 uM after 30 mins by UV-Vis spectral analysis
[5] = biological target: Amyloid-beta precursor protein (Homo sapiens) (UniProt P05067); assay: Inhibition of self-induced aggregation of amyloid beta (1 to 42) (unknown origin) at 25 uM after 24 hrs by thioflavin T fluorescence method relative to control
BV-2 [6] = assay: Cytotoxicity against mouse BV2 cells assessed as reduction in cell viability at 40 uM after 30 mins by MTT assay relative to control; format: cell-based; conditions: bv-2, 0.5 h
[7] = Antioxidant activity assessed as trolox equivalent of […]-induced radical scavenging activity at 1 to 10 uM pretreated for 15 mins followed by […] addition measured at 1 min interval for 90 mins by ORAC-FL assay; format: functional
BV-2 [8] = assay: Antiinflammatory activity in mouse BV2 cells assessed as inhibition of LPS-induced TNFalpha production at 2.5 uM pretreated for 30 mins followed by LPS-stimulation measured after 24 hrs by ELISA relative to control; format: functional
[9] = Effective permeability of the compound in PBS/EtOH at 100 ug/ml after 18 hrs by PAMPA-BBB assay
[10] = Metal chelating activity assessed as Al3+-compound complex formation by measuring shift in maximum absorption wavelength at 37.5 uM after 30 mins by UV-Vis spectral analysis
[11] = Metal chelating activity assessed as Fe2+-compound complex formation by measuring shift in maximum absorption wavelength at 37.5 uM after 30 mins by UV-Vis spectral analysis
BV-2 [12] = assay: Antiinflammatory activity in mouse BV2 cells assessed as inhibition of LPS-induced TNFalpha production at 0.5 uM pretreated for 30 mins followed by LPS-stimulation measured after 24 hrs by ELISA relative to control; format: functional
BV-2 [13] = assay: Antiinflammatory activity in mouse BV2 cells assessed as inhibition of LPS-induced TNFalpha production at 10 uM pretreated for 30 mins followed by LPS-stimulation measured after 24 hrs by ELISA relative to control; format: functional
[14] = Metal chelating activity assessed as mole fraction of compound required to show 1:1 stoichiometry for Cu2+-compound complex by UV-vis spectral analysis
BV-2 [15] = assay: Cytotoxicity against mouse BV2 cells assessed as effect on cell viability up to 10 uM after 30 mins by MTT assay; format: cell-based; conditions: bv-2, 0.5 h
BV-2 [16] = assay: Antiinflammatory activity in mouse BV2 cells assessed as inhibition of LPS-induced nitric oxide production at 0.5 uM pretreated for 30 mins followed by LPS-stimulation measured after 24 hrs by Griess assay relative to control; format: functional
BV-2 [17] = assay: Antiinflammatory activity in mouse BV2 cells assessed as inhibition of LPS-induced nitric oxide production at 10 uM pretreated for 30 mins followed by LPS-stimulation measured after 24 hrs by Griess assay relative to control; format: functional
BV-2 [18] = assay: Cytotoxicity against LPS-induced mouse BV2 cells assessed as effect on cell viability at 0.5 to 10 uM pretreated for 30 mins followed by LPS-stimulation after 24 hrs by MTT assay; format: cell-based; conditions: bv-2, 24 h
BV-2 [19] = assay: Cytotoxicity against LPS-induced mouse BV2 cells assessed as effect on cell viability at 2.5 to 10 uM pretreated for 30 mins followed by LPS-stimulation after 24 hrs by MTT assay; format: cell-based; conditions: bv-2, 24 h

Amyloid-beta precursor protein (Homo sapiens), sequence (P05067 whole entry): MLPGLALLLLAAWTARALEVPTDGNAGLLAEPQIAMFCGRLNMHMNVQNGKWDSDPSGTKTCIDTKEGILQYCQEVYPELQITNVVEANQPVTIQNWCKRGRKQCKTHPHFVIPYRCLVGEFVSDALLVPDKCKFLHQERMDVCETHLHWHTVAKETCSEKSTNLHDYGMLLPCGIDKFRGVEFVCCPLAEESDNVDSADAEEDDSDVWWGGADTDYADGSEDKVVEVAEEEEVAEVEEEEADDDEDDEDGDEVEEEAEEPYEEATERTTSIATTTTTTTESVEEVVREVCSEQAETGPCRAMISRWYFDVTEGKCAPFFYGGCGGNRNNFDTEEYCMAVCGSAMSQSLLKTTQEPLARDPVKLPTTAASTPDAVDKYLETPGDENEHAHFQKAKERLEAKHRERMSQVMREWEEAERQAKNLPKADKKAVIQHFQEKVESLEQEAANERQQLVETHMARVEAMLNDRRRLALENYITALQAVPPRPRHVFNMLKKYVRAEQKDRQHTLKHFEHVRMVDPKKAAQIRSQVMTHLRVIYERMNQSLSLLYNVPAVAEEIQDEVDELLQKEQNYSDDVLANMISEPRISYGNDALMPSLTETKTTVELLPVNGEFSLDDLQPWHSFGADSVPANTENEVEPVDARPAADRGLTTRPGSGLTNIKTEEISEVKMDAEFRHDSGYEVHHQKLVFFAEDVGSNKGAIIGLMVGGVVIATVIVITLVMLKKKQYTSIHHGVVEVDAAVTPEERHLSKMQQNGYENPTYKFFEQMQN

Row | SMILES | inhibition [1] [%] | inhibition [5] [%] | Activity [7] [equiv] | other results
1 | CC(C(=O)O)c1ccc(-c2ccc(O)c(C(=O)/C=C/c3ccc(N(C)C)cc3)c2)c(F)c1 (centres undefined) | 52.4 | 60 | 3.1 | Activity [2]: 492 nm; inhibition at 2.5 µM (BV-2 [3]): 36%; Activity [4]: inactive; Activity (BV-2 [6]): 69.1%; inhibition at 2.5 µM (BV-2 [8]): 39.6%; Papp at 18 h, 100 ug/ml [9]: 22.5 nm/s; Activity [10]: 500 nm; Activity [11]: inactive; inhibition at 0.5 µM (BV-2 [12]): 12.1%; inhibition at 10 µM (BV-2 [13]): 61.5%; Activity [14]: 0.99 molar ratio; Activity (BV-2 [15]): Non-Toxic; inhibition at 0.5 µM (BV-2 [16]): 25.7%; inhibition at 10 µM (BV-2 [17]): 64.7%; Activity (BV-2 [18]): Non-Toxic
2 | COc1ccc(O)c(/C=C/C(=O)c2cc(-c3ccc(C(C)C(=O)O)cc3F)ccc2O)c1 (centres undefined) | 22.2 | 38.1 | 2.5 | 
3 | COc1ccccc1/C=C/C(=O)c1cc(-c2ccc(C(C)C(=O)O)cc2F)ccc1O (centres undefined) | 18.9 | 25.1 | 1.06 | 
4 | Cc1ccc(/C=C/C(=O)c2cc(-c3ccc(C(C)C(=O)O)cc3F)ccc2O)cc1 (centres undefined) | 18.7 | 23.6 | 0.42 | 
5 | CCN(CC)c1ccc(/C=C/C(=O)c2cc(-c3ccc(C(C)C(=O)O)cc3F)ccc2O)cc1 (centres undefined) | 95 | 78.2 | 3.3 | Activity [2]: 500 nm; inhibition at 2.5 µM (BV-2 [3]): 46.3%; Activity (BV-2 [6]): 64.9%; inhibition at 2.5 µM (BV-2 [8]): 46.2%; Papp at 18 h, 100 ug/ml [9]: 66.6 nm/s; Activity [10]: 516 nm; inhibition at 0.5 µM (BV-2 [12]): 14.3%; inhibition at 10 µM (BV-2 [13]): 65.4%; Activity [14]: 1.04 molar ratio; Activity (BV-2 [15]): Non-Toxic; inhibition at 0.5 µM (BV-2 [16]): 30.1%; inhibition at 10 µM (BV-2 [17]): 68.4%; Activity (BV-2 [18]): Non-Toxic
6 | CC(C(=O)O)c1ccc(-c2ccc(O)c(C(=O)/C=C/c3cccs3)c2)c(F)c1 (centres undefined) | 12.1 | 16.6 | 1.2 | 
7 | COc1ccc(/C=C/C(=O)c2cc(-c3ccc(C(C)C(=O)O)cc3F)ccc2O)cc1 (centres undefined) | 29.1 | 32.9 | 0.61 | 
8 | COc1cc(/C=C/C(=O)CC(=O)/C=C/c2ccc(O)c(OC)c2)ccc1O | 69.5 |  |  | 
9 | CC(C(=O)O)c1ccc(-c2ccc(O)c(C(=O)/C=C/c3ccc(N4CCOCC4)cc3)c2)c(F)c1 (centres undefined) | 47.2 | 51.3 | 2.23 | 
10 | COc1ccc(/C=C/C(=O)c2cc(-c3ccc(C(C)C(=O)O)cc3F)ccc2O)c(OC)c1 (centres undefined) | 45.3 | 18.8 | 1.05 | 
11 | CC(C(=O)O)c1ccc(-c2ccc(O)c(C(=O)/C=C/c3ccc(O)cc3)c2)c(F)c1 (centres undefined) | 26.1 | 18.7 | 3.5 | 
12 | COc1ccc(/C=C/C(=O)c2cc(-c3ccc(C(C)C(=O)O)cc3F)ccc2O)cc1OC (centres undefined) | 24.5 | 14.2 | 1.56 | 
13 | CC(C(=O)O)c1ccc(-c2ccc(O)c(C(=O)/C=C/c3ccccc3O)c2)c(F)c1 (centres undefined) | 16.3 | 23.1 | 3.4 | 
14 | COc1ccc(/C=C/C(=O)c2cc(-c3ccc(C(C)C(=O)O)cc3F)ccc2O)cc1O (centres undefined) | 14.6 | 31 | 2 | 
15 | CC(C(=O)O)c1ccc(-c2ccc(O)c(C(=O)/C=C/c3ccncc3)c2)c(F)c1 (centres undefined) | 52.8 | 18.2 | 0.9 | 
16 | CC(C(=O)O)c1ccc(-c2ccccc2)c(F)c1 (centres undefined) [FLURBIPROFEN] | 6.2 | 12.3 | 0.14 | Activity (BV-2 [19]): Non-Toxic; inhibition at 2.5 µM (BV-2 [3]): 11.8%; Activity (BV-2 [6]): Non-Toxic; inhibition at 2.5 µM (BV-2 [8]): 9.6%; inhibition at 10 µM (BV-2 [13]): 30.3%; Activity (BV-2 [15]): Non-Toxic; inhibition at 10 µM (BV-2 [17]): 23%
17 | CC(C(=O)O)c1ccc(-c2ccc(O)c(C(=O)/C=C/c3ccccc3N(C)C)c2)c(F)c1 (centres undefined) | 20.1 | 36.8 | 0.77 | 
18 | COc1cccc(/C=C/C(=O)c2cc(-c3ccc(C(C)C(=O)O)cc3F)ccc2O)c1O (centres undefined) | 13.4 | 29 | 1.6 | 
19 | COc1cc2c(cc1OC)C(=O)C(CC1CCN(Cc3ccccc3)CC1)C2 (centres undefined) | < 5 |  |  | 
20 | CC(C(=O)O)c1ccc(-c2ccc(O)c(C(=O)/C=C/c3cccnc3)c2)c(F)c1 (centres undefined) | 47 | 8.3 | 1.1 | 
21 | CC(C(=O)O)c1ccc(-c2ccc(O)c(C(=O)/C=C/c3ccc(N4CCCCC4)cc3)c2)c(F)c1 (centres undefined) | 53.8 | 31.5 | 1.1 | 
